As usually defined, the IC50 is the concentration needed to halve the response being measured. The low end stands for greater potency in that assay, the high end for weaker potency in that assay.

For series [1], the target named is T1, Bovine lens aldose reductase (Bos taurus, UniProt P16116).
T1 construct: Bovine lens aldose reductase was separated and partially purified; from tissue; host or cells: bovine lens
Nature of the series: Inhibition of Aldose reductase. To be noted: for inhibition at 5 µg/mL: read-out: Inhibition at 5 μg/ml. The series is classed as biochemical. As to the method:
Bovine lens aldose reductase was separated and partially purified by the method of S. Hyman and J. H. Kinoshita [J. Biol. Chem., 240, 877 (1965)] and K. Inagaki, I. Miwa and J. Okuda [Arch. Biochem. Biophys., 316, 337 (1982)], and its activity was determined photometrically by the method of Varma et al. [Biochem. Pharmac., 25, 2505 (1976)]. Inhibition of enzyme activity was measured for the compounds of the present invention at a concentration of 5 μg/ml, and the measured values were used to calculate the IC50 values.

The test system of a further series is blood glucose level. The series can be described thus: Hypoglycemic activity in hyperglycemic KK mice. The series is classed as in vivo, hyperglycemic male mice of the KK strain. To be noted: Mus musculus, oral, 18 hours, vs solvent-only group, read-out: Hypoglycemic effect. The procedure:
The test animals used were hyperglycemic male mice of the KK strain, each having a body weight of at least 40 g. The compounds under test were mixed with a 1:1 by volume mixture of polyethylene glycol 400 and water. Each animal was orally administered a test compound in the amount shown in the following Table 6 and then allowed to feed freely for 18 hours. At the end of this time, blood was collected from the tail veins without anesthesia. The blood glucose level (BGL) was determined by means of a glucose analyzer (GL-101, manufactured by Mitsubishi Kasei Co. or a Glucoroder-F manufactured by Shino Test Co.).
The hypoglycemic effect was calculated by the following equation: [formula] where: BGLs is the blood glucose level in the group administered a solvent only, but no active compound; and
BGLt is the blood glucose level in the group administered a test compound.
The results are shown in the following Table 6, in which each compound of the present invention is identified by the number of one of the following Examples in which its preparation is illustrated.

The next series relates to male F344 rats. Nature of the series: Toxicity, 2 weeks oral in rats. The series is classed as in vivo. The settings on record: for mortality rate: oral, 50 mg/kg per day, 2 weeks, male F344 rats; for abnormalities which could be attributed to the test compounds: rat, in vivo, po, 50 mg/kg/day. The procedure:
The toxicity of the compounds of the present invention was tested on male F344 rats, divided into groups of 5. The test compound was adminstered orally to each test animal at a dose of 50 mg/kg of body weight per day for 2 weeks. The test compounds used were those of Examples 7 and 17 .

Consider `O=C1NC(=O)C(Cc2ccc(OCC3Cc4ccccc4N3)cc2)S1` (stereo not drawn) [Example 1, 5-[4-(Indolin-2-ylmethoxy)benzyl]thiazolidine-2,4-dione], for which, in series [1], the inhibition at 5 µg/mL stood at 54.5%. In addition, the inhibition in vivo at 10 mg/kg in the series with blood glucose level was 13.2%.

In the case of `CN1c2ccccc2CC1COc1ccc(CC2SC(=O)NC2=O)cc1` (stereo not drawn) [Example 2, 5-[4-(1-Methylidolin-2-ylmethoxy)benzyl]thiazolidine-2,4-dione], in series [1], half-maximal inhibition (IC50) was put at 8.68 µM and the inhibition at 5 µg/mL was 58.1%. Besides, the inhibition in vivo at 1 mg/kg in the series with blood glucose level came to 27.7%.

In series [1], `O=C1NC(=O)C(Cc2ccc(OCCN3CCc4ccccc43)cc2)S1` (stereo not drawn) [Example 3, 5-{4-[2-(Indolin-1-yl)ethoxyl]benzyl}thiazolidine-2,4-dione] showed a half-inhibitory concentration (IC50) of 10 µM. In addition, the inhibition in vivo at 10 mg/kg in the series with blood glucose level stood at 27%.

`O=C1NC(=O)C(Cc2ccc(OCCc3c[nH]c4ccccc34)cc2)S1` (stereo not drawn) [Example 4, 5-{4-[2-(Indol-3-yl)ethoxy]benzyl}thiazolidine-2.4dione] had an IC50 in series [1] of 6.28 µM.

For `O=C1NC(=O)C(Cc2ccc(OCCn3cc(C(c4ccccc4)(c4ccccc4)c4ccccc4)c4ccccc43)cc2)S1` (stereo not drawn) [Example 5, 5-{4-[2-(3-Triphenylmethylindol-1-yl)ethoxyl]-benzyl}thiazolidine-2,4-dione], in the series on blood glucose level, the inhibition in vivo at 10 mg/kg came out at 16.2%.

Turning to `O=C1NC(=O)C(Cc2ccc(OCCn3ccc4ccccc43)cc2)S1` (stereo not drawn) [Example 6, 5-{4-[2-(Indol-1-yl)ethoxy]benzyl}thiazolidine-1-dione], in series [1], the inhibition at 5 µg/mL is 47%. Besides, the inhibition in vivo at 10 mg/kg with blood glucose level turned out to be 20.9%.

As for `Cn1c(COc2ccc(CC3SC(=O)NC3=O)cc2)nc2cccnc21` (stereo not drawn) [Example 7, 5-{4-(3-Methyl-3H-imidazo[4,5-b]pyridin-2-methoxyl)-benzyl}thiazolidine-2,4-dione], in the series with male F344 rats, the mortality rate entry is listed as “zero” and the “abnormalities which could be attributed to the test compounds” value is on record as “no abnormalities”. This compound had an IC50 in series [1] of 2.71 µM. Moreover, in the series on blood glucose level, the inhibition in vivo at 1 mg/kg came to 24.7%.

Regarding `O=C1NC(=O)C(Cc2ccc(OCc3cn4ccccc4n3)cc2)S1` (stereo not drawn) [Example 9, 5-{4-(Imidazo[1,2-a]pyridin-2-ylmethoxy)benzyl}-thiazolidine2,4-dione], the inhibition at 5 µg/mL in series [1] worked out at 53.3%. Further, the inhibition in vivo at 10 mg/kg in the series on blood glucose level was determined as 27.6%.

With `Cn1c(COc2ccc(CC3SC(=O)NC3=O)cc2)cc2ccccc21` (stereo not drawn) [Example 10, 5-[4-(1-Methylindol-2-ylmethoxy)benzyl]thiazolidine-2,4-dione], the inhibition in vivo at 1 mg/kg with blood glucose level stood at 11.6%.

In series [1], `CCn1c(COc2ccc(CC3SC(=O)NC3=O)cc2)nc2cccnc21` (stereo not drawn) [Example 12, 5-{4-(3-Ethyl-3H-imidazo[4,5-b]pyridin-2-ylmethoxy)-benzyl}thiazolidine-2,4-dione] had an IC50 of 4.45 µM.

As for `Cn1c(COc2ccc(CC3SC(=O)NC3=O)cc2)nc2ncccc21` (stereo not drawn) [Example 13], the 50% inhibitory concentration (IC50) in series [1] is 7.06 µM. The inhibition in vivo at 1 mg/kg with blood glucose level is 34%.

For the compound `Cn1c(CCCOc2ccc(CC3SC(=O)NC3=O)cc2)nc2cccnc21` (stereo not drawn) [Example 14, 5-[4-{3-(3-Methyl-3H-imidazo[4,5-b]pyridin-2-yl)-propoxy}-benzyl]thiazolidine-2,4-dione], the inhibition at 5 µg/mL in series [1] came out at 53.9%.

In series [1], `O=C1NC(=O)C(Cc2ccc(OCc3nc4ncccc4[nH]3)cc2)S1` (stereo not drawn) [Example 15, 5-{4-(1H-Imidazo[4,5-b]pyridin-2-ylmethoxy)benzyl}-thiazolidine-2,4-dione] gave an IC50 of 6.77 µM. In addition, the inhibition in vivo at 1 mg/kg with blood glucose level is 13.8%.

Regarding `Cc1ccnc2c1nc(COc1ccc(CC3SC(=O)NC3=O)cc1)n2C` (stereo not drawn) [Example 16, 5-{4-(3,7-Dimethyl-3H-imidazo[4,5-b]pyridin-2-ylmethoxy)benzyl}thiazolidine-2,4-dione], in series [1], 9.67 µM corresponded to half-maximal inhibition (IC50) and the inhibition at 5 µg/mL is 59.1%.

As for `Cn1c(COc2ccc(CC3SC(=O)NC3=O)cc2)nc2ccc(Cl)nc21` (stereo not drawn) [Example 17, 5-{4-(5-Chloro-3-methyl-3H-imidazo[4,5-b]pyridin-2-ylmethoxy)benzyl}thiazolidine-2,4-dione], in the series with male F344 rats, the mortality rate result is given as “zero” and the “abnormalities which could be attributed to the test compounds” value is listed as “no abnormalities”. Further, inhibition in series [1] was half-maximal at 4.47 µM (IC50). Moreover, in the series with blood glucose level, the inhibition in vivo at 1 mg/kg came to 37.1%.

As for `Cn1c(COc2ccc(CC3SC(=O)NC3=O)cc2)nc2cc(C(F)(F)F)cnc21` (stereo not drawn) [Example 18, 5-{4-(3-Methyl-6-trifluoromethyl-3H-imidazo[4,5-b]pyridin-2-ylmethoxy)benzyl}thiazolidine-2,4-dione], in series [1], the IC50 was 2.02 µM and the inhibition at 5 µg/mL was found to be 76.3%.

For the compound `O=C1NC(=O)C(Cc2ccc(OCc3nc4cccnc4n3Cc3ccc(Cl)cc3)cc2)S1` (stereo not drawn) [Example 20, 5-(4-{3-(4-Chlorobenzyl)-3H-imidazo[4,5-b]pyridin-2-ylmethoxyl}benzyl)thiazolidine-2,4-dione], in series [1], the IC50 was 3.76 µM and the inhibition at 5 µg/mL amounted to 61.6%. The inhibition in vivo at 1 mg/kg with blood glucose level was found to be 24.5%.

For `Cn1c(COc2ccc(CC3SC(=O)NC3=O)cc2)nc2cc(Br)cnc21` (stereo not drawn) [Example 22, 5-{4-(6-Bromo-3-methyl-3H-imidazo[4,5-b]pyridin-2-ylmethoxy)benzyl}thiazolidine-2,4-dione], in series [1], the midpoint of inhibition, the IC50, lay at 4.02 µM and the inhibition at 5 µg/mL turned out to be 77.2%. Also, the inhibition in vivo at 1 mg/kg with blood glucose level was found to be 10.2%.

`Cn1c(COc2ccc(CC3SC(=O)NC3=O)cc2)nc2cc(Cl)cnc21` (stereo not drawn) [Example 23, 5-{4-(6-Chloro-3-methyl-3H-imidazo[4,5-b]pyridin-2-ylmethoxy)benzyl}thiazolidine-2,4-dione]: in series [1], the midpoint of inhibition, the IC50, lay at 3.23 µM and the inhibition at 5 µg/mL turned out to be 94.9%. Moreover, the inhibition in vivo at 1 mg/kg in the series on blood glucose level came out at 21.7%.

With `Cn1c(COc2ccc(CC3SC(=O)NC3=O)cc2)nc2cnccc21` (stereo not drawn) [Example 25], in series [1], the IC50 is 2.42 µM and the inhibition at 5 µg/mL was 81.6%.

In the case of `O=C1NC(=O)C(Cc2ccc(OCc3nc4cccnc4n3-c3ccccc3)cc2)S1` (stereo not drawn) [Example 27], in series [1], half-maximal inhibition (IC50) required 1.97 µM and the inhibition at 5 µg/mL turned out to be 91.8%.

These data come from patent US5624935A, “Heterocyclic compounds having anti-diabetic activity and their use” (Sankyo Company, Limited, priority 1994, dated 1997).
